Data as given in US7985731B2, “Sugar chain added GLP-1 peptide” (Otsuka Chemical Holdings Co., Ltd., priority 2007, dated 2011).
Ends that are not written are not given here. asialo oligosaccharide = not defined here

Experiments:
[1] = Test Example 1: stability in plasma; assay type: in vitro ADME; settings: PBS 70% / plasma 30%, 37° C., sampled 10 to 1440 minutes
Experimental: 0.1 mg of the peptide prepared in Example 7 or Comparative Example 1 was placed in an Eppendorf tube, and PBS (0.08 ml, 70% of the whole amount) and plasma (0.034 ml, 30% of the whole amount) were sequentially placed therein to bring about the solution amount to 0.114 ml in total. The mixture was allowed to react at 37° C.
The time when plasma was added to the reaction vessel was defined as 0 min. 0.01 ml aliquots were taken from the reaction solution on 10, 30, 60, 180, 360, 720 and 1440 minutes for sampling.
Each sampled reaction solution was mixed with 0.02 ml of 10% trifluoroacetic acid solution prepared in advance in an Eppendorf tube and then centrifuged. A 0.025 ml aliquot of the supernatant of the solution mixture was injected into HPLC to analyze the composition of the reaction solution (reaction monitoring conditions: Shiseido CAPCELL PAK C18, UG120, 250×4.6 mm, developing solvent A: 0.1% aqueous TFA solution, B: 0.1% TFA acetonitrile: water=90:10, gradient A:B=95:5→5:95, 15 min, flow rate: 0.7 ml/min). The results are shown in FIGS. 5 (Example 7) and 6 (Comparative Example 1).

[2] = system: C57BL/6JJcl mice; experiment: Test Example 7: Oral Glucose Tolerance Test (OGTT); assay type: in vivo; settings: for dose dependence of activity of suppressing rise in blood-sugar levels in OGTT: doses 0.9 nmol/kg and 0.09 nmol/kg intraperitoneal
How it was run: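 Overnight-fasted mice received oral glucose 1 mg/g 30 minutes after treatment. Orbital blood taken before and at 30, 60, 120 minutes post-glucose. Blood glucose measured by glucometer.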

[3] = system: db/db (BKS.Cg-+Lepr db/+Lepr db/Jcl) mice; experiment: Test Example 8: effect of lowering blood-sugar levels in diabetes model mice; assay type: in vivo; settings: 9 nmol/kg intraperitoneal; for effect of lowering blood-sugar levels in db/db mice: 10-week-old male mice; for durability of effect of lowering blood-sugar levels in db/db mice: up to 300 minutes
Experimental: The oligosaccharide chain added GLP-1 peptide prepared in Example 2, 3, 4, 21 or 23 or the GLP-1 prepared in Comparative Example 1 in a PBS solution (9 nmol/10 ml) was intraperitoneally administered at a dose of 10 ml/kg to BKS.Cg−+Lepr^db/+Lepr^db/Jcl mice (10 week old, male). Blood was collected from the orbits before the compound administration and 30 minutes, 60 minutes, 120 minutes, 180 minutes and 300 minutes after the compound administration. Blood-sugar levels were measured using ACCU-CHEK Aviva (Roche Diagnostics).
The db/db (BKS.Cg−+Lepr^db/+Lepr^db/Jcl) mice serving as diabetes model mice have a mutation in a receptor of leptin which is anorexigenic/energy metabolism-accelerating hormone and develops conditions such as obesity or hyperglycemia.
Blood-sugar levels were measured over time, and their effects of lowering blood-sugar levels were compared with that of the GLP-1 without oligosaccharide chain addition of Comparative Example 1.

[4] = system: type-2 diabetes model mice (BKS.Cg-+Lepr db/+Lepr db/Jcl); experiment: Test Example 2: effect of lowering blood-sugar levels in db/db mice-1; assay type: in vivo; settings: 9 nmol/kg intraperitoneal, 8-week-old male db/db mice, 0-180 minutes
Experimental: The peptide prepared in each of Examples 1 to 5 or Comparative Example 1 was intraperitoneally administered as the same sample at a dose of […] of body weight (sample concentration: 9 nmol/kg of body weight) to each of three 8-week-old male type-2 diabetes model mice (BKS.Cg−+Lepr^db/Lepr^db/Jcl*). Specifically, the peptide in a PBS solution (9 nmol/10 ml) was intraperitoneally administered at a dose of 10 ml/kg to the BKS.Cg−+Lepr^db/+Lepr^db/Jcl mice (8 week old, male). 0, 30, 60, 90, 120 and 180 minutes after the administration, 0.03 ml of peripheral blood from the retro-orbital venous plexus was collected. The obtained blood was diluted with PBS to 0.3 ml in total, and the solution was centrifuged to separate plasma and hemocyte components. Then, only the plasma component was transferred to an Eppendorf tube separately prepared and refrigerated. A glucose concentration in plasma was measured in accordance with Glucose CII-Test Wako using an absorptiometer. The results were obtained by statistical processing.

[5] = biological target: T1, mouse GLP-1 receptor (Mus musculus, UniProt O35659); experiment: Test Example 6: ability to synthesize cAMP in mouse GLP-1 receptor-expressing CHO-K1 cells; assay type: cell-based
T1 construct: expressed in transfected cells
T1 sequence (O35659 22-463): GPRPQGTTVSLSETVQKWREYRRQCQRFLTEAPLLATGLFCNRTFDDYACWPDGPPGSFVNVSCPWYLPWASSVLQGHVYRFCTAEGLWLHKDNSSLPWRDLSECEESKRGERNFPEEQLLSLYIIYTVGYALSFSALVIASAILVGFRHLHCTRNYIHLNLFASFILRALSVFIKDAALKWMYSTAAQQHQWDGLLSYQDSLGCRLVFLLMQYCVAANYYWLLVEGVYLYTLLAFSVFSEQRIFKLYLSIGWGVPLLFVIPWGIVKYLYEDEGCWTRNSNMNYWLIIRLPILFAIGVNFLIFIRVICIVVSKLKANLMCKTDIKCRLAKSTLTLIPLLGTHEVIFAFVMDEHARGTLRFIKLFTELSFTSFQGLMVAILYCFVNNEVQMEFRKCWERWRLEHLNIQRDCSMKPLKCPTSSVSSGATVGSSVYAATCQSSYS

[6] = 9 nmol/kg intraperitoneal 30 minutes before glucose 1 mg/g oral

| Molecule | stability in plasma (HPLC analysis of remaining peptide) [1] | effect of suppressing rise in blood-sugar levels in OGTT [2, 6] | effect of lowering blood-sugar levels in db/db mice [3] | effect of lowering blood-sugar levels (glucose concentration in plasma) [4] | activity of suppressing rise in blood-sugar levels in OGTT ([2]; 0.09 nmol/kg intraperitoneal) | effect of suppressing rise in blood-sugar levels in OGTT ([2]; 0.9 nmol/kg intraperitoneal) | dose dependence of activity of suppressing rise in blood-sugar levels in OGTT [2] | activity of suppressing rise in blood-sugar levels in OGTT relative to GLP-1 (times) ([2]; from doses giving equivalent effect, GLP-1 at 9 nmol/kg) | durability of effect of lowering blood-sugar levels in db/db mice [3] | cAMP synthesis activity compared with GLP-1 (in words) [5] | efficacy relative to 30Cys GLP-1-disialo and 36Cys GLP-1-disialo at the same dose in OGTT ([2]; 0.9 nmol/kg intraperitoneal) |
| --- | --- | --- | --- | --- | --- | --- | --- | --- | --- | --- | --- |
| CC[C@H](C)[C@H](NC(=O)[C@H](Cc1ccccc1)NC(=O)[C@H](CCC(=O)O)NC(=O)[C@H](CCCCN)NC(=O)[C@H](C)NC(=O)[C@H](C)NC(=O)[C@H](CCC(N)=O)NC(=O)CNC(=O)[C@H](CCC(=O)O)NC(=O)[C@H](CC(C)C)NC(=O)[C@H](Cc1ccc(O)cc1)NC(=O)[C@H](CO)NC(=O)[C@H](CO)NC(=O)[C@@H](NC(=O)[C@H](CC(=O)O)NC(=O)[C@H](CO)NC(=O)[C@@H](NC(=O)[C@H](Cc1ccccc1)NC(=O)[C@@H](NC(=O)CNC(=O)[C@H](CCC(=O)O)NC(=O)[C@H](C)NC(=O)[C@@H](N)Cc1c[nH]cn1)[C@@H](C)O)[C@@H](C)O)C(C)C)C(=O)N[C@@H](C)C(=O)N[C@@H](Cc1c[nH]c2ccccc12)C(=O)N[C@@H](CC(C)C)C(=O)N[C@H](C(=O)N[C@@H](CCCCN)C(=O)NCC(=O)N[C@@H](CCCNC(=N)N)C(=O)NCC(=O)O)C(C)C [Comparative Example 1, GLP-1] | mostly degraded by 180 minutes after the plasma addition | small effect of suppressing rise in blood-sugar levels | almost equal to those in PBS-administered mice | hardly lowered blood-sugar levels |  |  |  |  |  |  |  |
| CC[C@H](C)[C@H](NC(=O)[C@H](Cc1ccccc1)NC(=O)[C@H](CCC(=O)O)NC(=O)[C@H](CCCCN)NC(=O)[C@H](C)NC(=O)[C@H](C)NC(=O)[C@H](CCC(N)=O)NC(=O)CNC(=O)[C@H](CCC(=O)O)NC(=O)[C@H](CC(C)C)NC(=O)[C@H](Cc1ccc(O)cc1)NC(=O)[C@H](CO)NC(=O)[C@H](CO)NC(=O)[C@@H](NC(=O)[C@H](CC(=O)O)NC(=O)[C@H](CO)NC(=O)[C@@H](NC(=O)[C@H](Cc1ccccc1)NC(=O)[C@@H](NC(=O)CNC(=O)[C@H](CCC(=O)O)NC(=O)[C@H](C)NC(=O)[C@@H](N)Cc1c[nH]cn1)[C@@H](C)O)[C@@H](C)O)C(C)C)C(=O)N[C@@H](C)C(=O)N[C@@H](Cc1c[nH]c2ccccc12)C(=O)N[C@@H](CC(C)C)C(=O)N[C@H](C(=O)N[C@@H](CCCCN)C(=O)NCC(=O)N[C@@H](CSCC(=O)N[C@@H]1O[C@H](CO)[C@@H](O[C@@H]2O[C@H](CO)[C@@H](O[C@@H]3O[C@H](CO[C@H]4O[C@H](CO)[C@@H](O)[C@H](O)[C@@H]4O[C@@H]4O[C@H](CO)[C@@H](O[C@@H]5O[C@H](CO[C@]6(C(=O)O)C[C@H](O)[C@@H](NC(C)=O)[C@H]([C@H](O)[C@H](O)CO)O6)[C@H](O)[C@H](O)[C@H]5O)[C@H](O)[C@H]4NC(C)=O)[C@@H](O)[C@H](O[C@H]4O[C@H](CO)[C@@H](O)[C@H](O)[C@@H]4O[C@@H]4O[C@H](CO)[C@@H](O[C@@H]5O[C@H](CO[C@]6(C(=O)O)C[C@H](O)[C@@H](NC(C)=O)[C@H]([C@H](O)[C@H](O)CO)O6)[C@H](O)[C@H](O)[C@H]5O)[C@H](O)[C@H]4NC(C)=O)[C@@H]3O)[C@H](O)[C@H]2NC(C)=O)[C@H](O)[C@H]1NC(C)=O)C(=O)NCC(=O)O)C(C)C [Example 4, 36Cys GLP-1-disialo] |  | strong effect of suppressing rise in blood-sugar levels | strong effect of lowering blood-sugar levels |  | equivalent to that of the GLP-1 at a dose of 9 nmol/kg | suppressed rise in blood-sugar levels almost completely | dose-dependent activity of suppressing rise in blood-sugar levels | about 100 times | blood-sugar levels were kept at low levels after 300 minutes | activity equal to or more than that of the GLP-1 |  |
| CC[C@H](C)[C@H](NC(=O)[C@H](Cc1ccccc1)NC(=O)[C@H](CCC(=O)O)NC(=O)[C@H](CCCCN)NC(=O)[C@H](C)NC(=O)[C@H](C)NC(=O)[C@H](CCC(N)=O)NC(=O)CNC(=O)[C@H](CCC(=O)O)NC(=O)[C@H](CC(C)C)NC(=O)[C@H](Cc1ccc(O)cc1)NC(=O)[C@H](CO)NC(=O)[C@H](CO)NC(=O)[C@@H](NC(=O)[C@H](CC(=O)O)NC(=O)[C@H](CO)NC(=O)[C@@H](NC(=O)[C@H](Cc1ccccc1)NC(=O)[C@@H](NC(=O)CNC(=O)[C@H](CCC(=O)O)NC(=O)[C@H](C)NC(=O)[C@@H](N)Cc1c[nH]cn1)[C@@H](C)O)[C@@H](C)O)C(C)C)C(=O)N[C@@H](C)C(=O)N[C@@H](Cc1c[nH]c2ccccc12)C(=O)N[C@@H](CC(C)C)C(=O)N[C@H](C(=O)N[C@@H](CSCC(=O)N[C@@H]1O[C@H](CO)[C@@H](O[C@@H]2O[C@H](CO)[C@@H](O[C@@H]3O[C@H](CO[C@H]4O[C@H](CO)[C@@H](O)[C@H](O)[C@@H]4O[C@@H]4O[C@H](CO)[C@@H](O[C@@H]5O[C@H](CO[C@]6(C(=O)O)C[C@H](O)[C@@H](NC(C)=O)[C@H]([C@H](O)[C@H](O)CO)O6)[C@H](O)[C@H](O)[C@H]5O)[C@H](O)[C@H]4NC(C)=O)[C@@H](O)[C@H](O[C@H]4O[C@H](CO)[C@@H](O)[C@H](O)[C@@H]4O[C@@H]4O[C@H](CO)[C@@H](O[C@@H]5O[C@H](CO[C@]6(C(=O)O)C[C@H](O)[C@@H](NC(C)=O)[C@H]([C@H](O)[C@H](O)CO)O6)[C@H](O)[C@H](O)[C@H]5O)[C@H](O)[C@H]4NC(C)=O)[C@@H]3O)[C@H](O)[C@H]2NC(C)=O)[C@H](O)[C@H]1NC(C)=O)C(=O)NCC(=O)N[C@@H](CCCNC(=N)N)C(=O)NCC(=O)O)C(C)C [Example 23, 34Cys GLP-1-disialo] |  | strong effect of suppressing rise in blood-sugar levels | strong effect of lowering blood-sugar levels |  |  |  | dose-dependent activity of suppressing rise in blood-sugar levels |  | effects of lowering blood-sugar levels were slightly weakened over time | activity equal to or more than that of the GLP-1 | about ½ |
| 19Asn GLP-1-asialo (HAEGTFTSDVSSN(asialo oligosaccharide)LEGQAAKEFIAWLVKGRG; reading uncertain) [Example 7, GLP-1 wherein position 19 is substituted by asialo oligosaccharide chain added Asn] | mostly remained even after 24 hours |  |  |  |  |  |  |  |  |  |  |
